Where two headings read alike, the source gives them in different places. Residues, ends and D or L forms follow the SMILES beside them. *: point of attachment. Palmitoyl = CCCCCCCCCCCCCCCC(=O)*
Tests used:
[1] = tested on: TRPV1-mediated excitability of sensory neurons (neonatal rat dorsal root ganglia); experiment: In vitro functional assay for neuronal sensitization (microelectrode array, capsaicin pulses); format: cell-based, Wistar rats; settings: for % Sensitization inhibition: incubated 1 hour, 100 - ratio P3/P1
Description: Isolated neonatal rat dorsal root ganglia from Wistar rats (3-5 days-old) were seeded microelectrode array chips in DMEM Glutamax, 10% FBS, 1% P/S supplemented with murine NGF. All experiments were performed after 48 h cell seeding.
Sensory neurons were sensitized by acute exposure to pro-inflammatory cocktail with bradykinin, histamine and ATP. TRPV1-mediated excitability was analyzed as stinging, burning and itching sensations are mainly driven by TRPV1. Repetitive application of TRPV1-agonist capsaicin (15 s-application 500 nM) allowed first activation (P1) followed by desensitization (second application). Desensitized cultures were sensitized with the cocktail to recover excitability, using external solution between the second (P2) and the third (P3) capsaicin pulse (8 min). To confirm cell viability 40 mM KCl was applied at the end. Test compound was incubated 1 hour before monitoring at 0.1, 1 and 10 µM. Test compound is the peptide having the following sequence (SEQ ID NO: 1): Palm-HYWRELQYR-NH2
Sensitization was calculated as ratio between P3 and P1 capsaicin pulse (ratio P3/P1), representing sensitized response induced by the pro-inflammatory cocktail. Inhibition percentage was calculated as 100-Sensitization. Data are expressed as mean±standard error of the mean (SEM), Statistical analysis was one-way ANOVA followed by Dunnett's post-hoc multiple comparison test comparing each condition with the corresponding sensitization control group, ****p<0.0001 ***p<0.001 **p<0.01, *p<0.05

[2] = tested on: acetylcholine release, human neuroblastoma cell line differentiated to cholinergic neuronal phenotype; experiment: Inhibition of KCl-induced acetylcholine release in a neuroblastoma cell line (Amplex Red); format: cell-based; settings: 50 mM KCl
Description: To determine the compound of the invention effects on acetylcholine release, a human neuroblastoma cell line (50.000 cells/well) was used. Cells were differentiated to cholinergic neuronal phenotype for 4 days. Then, cells were pre-incubated for 60 minutes with the compounds (between 0.1 and 100 μM) as acetyl- or palmitoyl-form and conjugated with trifluoroacetate (TFA) or acetate salt. Afterwards, acetylcholine release was induced by membrane depolarization evoked by 15 minutes incubation with 50 mM KCl. Acetylcholine level in supernatants was quantified by using Amplex® Red Acetylcholine Assay Kit (Thermofisher) following manufacturer's instructions. […] Fluorescence (Ex 530 nm/Em 590 nm) was measured in FluorStar equipment. Acetylcholine content was normalized to the total protein content using BCA assay (Pierce) following manufacturer's instructions. Fluorescence measurements were normalized to the maximum signal detected with KCl stimulation in vehicle treated cells. Vesicle exocytosis disruption by the compounds of the invention lead to a decrease of acetylcholine release (Table E).

[3] = tested on: pilocarpine-induced sweating, C57BL6/Rcc male mice; experiment: Antiperspirant effect, chronic administration, pilocarpine-induced sweating mouse model; format: in vivo; settings: during 4 weeks treatment, 100 μg/paw
Description: This example evaluated chronic effects of peptide of invention SEQ ID NO: 1 pamitoylated form, in an in vivo sweating model. This model was established using pilocarpine, a non-selective agonist of muscarinic receptors, in 11-weeks old C57BL6/Rcc male mice. Test compound was locally administered three times per week for 4 weeks (Treatment). Sweat was induced by intraplantar (i.pl) injection of pilocarpine (3 μg/paw) in the right hind paw (Sweating) once on weeks 1, 2 and 4 according to table H.
Test compound was injected i.pl. on the right hind paw (1, 10 and 100 μg), and vehicle was saline solution.
Sweating was monitored through amylase activity detection on skin surface using iodine/starch reaction. Dark sweating drops were quantified after 5 minutes induction counting number of drops per paw in each condition. Sample n=5-6 individuals per group. Data are expressed as mean #standard error of the mean (SEM). Raw data was normalized as percentage respect to non-injected stimulated individuals (control, 100%). Statistical analysis was one-way ANOVA followed by Dunnett's post-hoc multiple comparison test comparing each condition with the corresponding control group, ****p<0.0001 ***p<0.001 **p<0.01, *p<0.05

[4] = tested on: pilocarpine-induced sweating, C57BL6/Rcc male mice; settings: acute, at 10, 30 and 100 μg
Description: Test compound was injected intraplantar (i.pl.) on the right hind paw (10, 30 and 100 μg) 30 min before sweating stimulation. Vehicle was saline solution.
Sweating was monitored through amylase activity detection on skin surface using iodine/starch reaction. Dark sweating drops were quantified after 5 minutes induction counting number of drops per paw in each condition. Sample n=5-6 individuals per group. Data are expressed as mean±standard error of the mean (SEM). Raw data was normalized as percentage respect to non-injected stimulated individuals (Control, 100%) and saline-injected non-stimulated individuals (Vehicle, 0%). Statistical analysis was one-way ANOVA followed by Dunnett's post-hoc multiple comparison test comparing each condition with the corresponding control group, ****p<0.0001 ***p<0.001 **p<0.01, *p<0.05

SMILES: CCCCCCCCCCCCCCCC(=O)N[C@@H](Cc1c[nH]cn1)C(=O)N[C@@H](Cc1ccc(O)cc1)C(=O)N[C@@H](Cc1c[nH]c2ccccc12)C(=O)N[C@@H](CCCNC(=N)N)C(=O)N[C@@H](CCC(=O)O)C(=O)N[C@@H](CC(C)C)C(=O)N[C@@H](CCC(N)=O)C(=O)N[C@@H](Cc1ccc(O)cc1)C(=O)N[C@@H](CCCNC(=N)N)C(N)=O [SEQ ID NO: 1 palmitoyl, Palm-HYWRELQYR-NH2] (Palmitoyl-HYWRELQYR-NH2)
- % Sensitization inhibition ([1]; 0.1 μM): 69.7%
- % Sensitization inhibition ([1]; 1 μM): 51.2%
- % Sensitization inhibition ([1]; 10 μM): 59.7%
- effect on sensitization process (in words) ([1]; at the three concentration (0.1, 1 and 10 µM)): significantly inhibited sensitization process with similar efficacy
- % Ach release inhibition ([2]; Acetate salt, 0.1 μM): 42.9%
- % Ach release inhibition ([2]; Acetate salt, 1 μM): 81.3%
- % Ach release inhibition ([2]; Acetate salt, 10 μM): 87.5%
- % Ach release inhibition ([2]; TFA salt, 5 μM): 7.9%
- % Ach release inhibition ([2]; TFA salt, 10 μM): 49.4%
- % Ach release inhibition ([2]; TFA salt, 50 μM): 75.9%
- effect on sweating (in words) [3]: significant sweating inhibition
- effect on sweating (in words) [4]: significantly reduced sweating

— patent publication US12377035B2, “Peptides for inhibiting cholinergic calcitonin gene-related peptide (CGRP) and acetylcholine (ACH) release or inhibiting sensitization-mediated by TRPV1-mediated excitability in sensory neurons and methods of use thereof” (AZIENDE CHIMICHE RIUNITE ANGELINI FRANCESCO—A.C.R.A.F. …, priority 2018, dated 2025)
